Laboratory results taken from ChEMBL document CHEMBL5143574, “Unraveling the anti-virulence potential and antifungal efficacy of 5-aminotetrazoles using the zebrafish model of disseminated candidiasis” (Eur J Med Chem, 2022).
Values after ≈ are worked out from the molar mass of the structure shown. Active and inactive are the calls of the source. The calls are words filed in the database; no cut-off is given here.

What was measured:
[1] = tested on: Candida albicans; experiment: Antifungal activity against Candida albicans SC5314 assessed as inhibition of fungal growth incubated for 24 hrs by broth microdilution assay; assay type: functional
[2] = Toxicity in zebrafish embryos assessed as mortality treated at 6 hpf and measured at 120 hpf by stereomicroscopic analysis; parameters: species or system Danio rerio; conditions: in vivo
[3] = tested on: Candida albicans; experiment: Anti-virulence activity against Candida albicans SC5314 assessed as inhibition of fungal filamentation by measuring reduction in hyphae formation in Spider medium upto 10 uM incubated for 3 to 5 days by stereomicroscopic analysis; assay type: functional, organism-based; conditions: time 3-5 day
[4] = tested on: Candida albicans; experiment: Anti-virulence activity against Candida albicans SC5314 assessed as inhibition of fungal filamentation by measuring reduction in hyphae formation in Lee medium upto 10 uM incubated for 3 to 5 days by stereomicroscopic analysis; assay type: functional, organism-based; conditions: time 3-5 day
[5] = tested on: Candida albicans; experiment: Anti-virulence activity against Candida albicans SC5314 assessed as inhibition of fungal filamentation by measuring reduction in hyphae formation in YPS medium upto 10 uM incubated for 3 to 5 days by stereomicroscopic analysis; assay type: functional, organism-based; conditions: time 3-5 day
[6] = tested on: Candida albicans; experiment: Anti-virulence activity against Candida albicans SC5314 assessed as inhibition of fungal filamentation by measuring reduction in hyphae formation in SLAD medium upto 10 uM incubated for 3 to 5 days by stereomicroscopic analysis; assay type: functional, organism-based; conditions: time 3-5 day
[7] = tested on: Candida albicans; experiment: Anti-virulence activity against Candida albicans SC5314 assessed as inhibition of fungal filamentation by measuring reduction in hyphae formation in YPS plus uridine medium upto 10 uM incubated for 3 to 5 days by stereomicroscopic analysis; assay type: functional, organism-based; conditions: time 3-5 day
[8] = tested on: Candida albicans; experiment: Anti-virulence activity against Candida albicans SC5314 assessed as inhibition of fungal filamentation by measuring reduction in hyphae formation in GlcNAc medium upto 10 uM incubated for 3 to 5 days by stereomicroscopic analysis; assay type: functional, organism-based; conditions: time 3-5 day
[9] = tested on: Candida albicans; experiment: Anti-virulence activity against Candida albicans SC5314 assessed as inhibition of fungal filamentation by measuring reduction of hyphae formation in RPMI medium upto 10 uM incubated for 3 to 5 days by stereomicroscopic analysis; assay type: functional, organism-based; conditions: time 3-5 day
[10] = Hepatotoxicity in zebrafish embryos assessed as liver darkening at 25 uM treated at 6 hpf and measured at 120 hpf by stereomicroscopic analysis; assay type: toxicity, Danio rerio; conditions: in vivo
[11] = tested on: Candida albicans; experiment: Anti-virulence activity against Candida albicans SC5314 assessed as inhibition of fungal filamentation by measuring reduction in hyphae formation in Spider medium at 5 uM incubated for 3 to 5 days by stereomicroscopic analysis; assay type: functional, organism-based; conditions: time 3-5 day
[12] = tested on: Candida albicans; experiment: Anti-virulence activity against Candida albicans SC5314 assessed as inhibition of fungal filamentation by measuring reduction in hyphae formation in Lee medium at 5 uM incubated for 3 to 5 days by stereomicroscopic analysis; assay type: functional, organism-based; conditions: time 3-5 day
[13] = tested on: Candida albicans; experiment: Anti-virulence activity against Candida albicans SC5314 assessed as inhibition of fungal filamentation by measuring reduction in hyphae formation in YPS medium at 5 uM incubated for 3 to 5 days by stereomicroscopic analysis; assay type: functional, organism-based; conditions: time 3-5 day
[14] = tested on: Candida albicans; experiment: Anti-virulence activity against Candida albicans SC5314 assessed as inhibition of fungal filamentation by measuring reduction in hyphae formation in YPS plus uridine medium at 5 uM incubated for 3 to 5 days by stereomicroscopic analysis; assay type: functional, organism-based; conditions: time 3-5 day
[15] = tested on: Candida albicans; experiment: Anti-virulence activity against Candida albicans SC5314 assessed as inhibition of fungal filamentation by measuring reduction in hyphae formation in RPMI medium at 5 uM incubated for 3 to 5 days by stereomicroscopic analysis; assay type: functional, organism-based; conditions: time 3-5 day
[16] = Hepatotoxicity in zebrafish embryos assessed as liver failure by measuring necrotic and decreased liver with non-resorbed yolk at 0.25 uM treated at 6 hpf and measured at 120 hpf by stereomicroscopic analysis; assay type: toxicity, tissue-based, Danio rerio; conditions: in vivo
[17] = Cardiotoxicity in zebrafish embryos assessed as pericardial edema at 0.25 uM treated at 6 hpf and measured at 120 hpf by stereomicroscopic analysis; assay type: toxicity, Danio rerio
[18] = tested on: Candida albicans; experiment: Anti-virulence activity against Candida albicans SC5314 assessed as inhibition of fungal filamentation by measuring reduction of hyphae formation in Lee medium at 1.3 uM incubated for 3 to 5 days by stereomicroscopic analysis; assay type: functional, organism-based; conditions: time 3-5 day
[19] = tested on: Candida albicans; experiment: Anti-virulence activity against Candida albicans SC5314 assessed as inhibition of fungal filamentation by measuring reduction of hyphae formation in SLAD medium at 1.3 uM incubated for 3 to 5 days by stereomicroscopic analysis; assay type: functional, organism-based; conditions: time 3-5 day
[20] = tested on: Candida albicans; experiment: Anti-virulence activity against Candida albicans SC5314 assessed as inhibition of fungal filamentation by measuring reduction of hyphae formation in YPS medium at 1.3 uM incubated for 3 to 5 days by stereomicroscopic analysis; assay type: functional, organism-based; conditions: time 3-5 day
[21] = tested on: Candida albicans; experiment: Anti-virulence activity against Candida albicans SC5314 assessed as inhibition of fungal filamentation by measuring reduction of hyphae formation in YPS plus uridine medium at 1.3 uM incubated for 3 to 5 days by stereomicroscopic analysis; assay type: functional, organism-based; conditions: time 3-5 day
[22] = tested on: Candida albicans; experiment: Anti-virulence activity against Candida albicans SC5314 assessed as inhibition of fungal filamentation by measuring reduction of hyphae formation in Spider medium at 1.3 uM incubated for 3 to 5 days by stereomicroscopic analysis; assay type: functional, organism-based; conditions: time 3-5 day
[23] = tested on: Candida albicans; experiment: Anti-virulence activity against Candida albicans SC5314 assessed as inhibition of fungal filamentation by measuring reduction of hyphae formation in GlcNAc medium at 1.3 uM incubated for 3 to 5 days by stereomicroscopic analysis; assay type: functional, organism-based; conditions: time 3-5 day
[24] = tested on: Candida albicans; experiment: Anti-virulence activity against Candida albicans SC5314 assessed as inhibition of fungal filamentation by measuring reduction of hyphae formation in RPMI medium at 1.3 uM incubated for 3 to 5 days by stereomicroscopic analysis; assay type: functional, organism-based; conditions: time 3-5 day
[25] = tested on: Candida albicans; experiment: Anti-virulence activity against 53-75 RFP expressing cells of Candida albicans M137 in hind brain of zebra fish embryo disseminated candidiasis model assessed as inhibition of fungal filamentation by measuring reduction of hyphae formation in the hind brain at 10 uM treated at 1 hr post-infection and measured on day 4 post infection by fluorescence microscopy; assay type: functional; conditions: M137, 96 h, time 4 day
[26] = Toxicity against zebrafish embryo infected with 53-75 RFP expressing cells of Candida albicans M137 assessed as mortality at 2.5 to 10 uM treated at 1 hr post-infection and measured on day 4 post-infection; parameters: species or system Danio rerio; conditions: 96 h, dose 2.5-10 µM, time 4 day
[27] = Toxicity in zebrafish embryos assessed as toxic responses at 200 uM treated at 6 hpf and measured at 120 hpf by stereomicroscopic analysis; parameters: species or system Danio rerio; conditions: in vivo, 24 h

Row | SMILES | MIC [1] | LC50 [2] | Activity [11] | Activity [12] | Activity [13] | Activity [14] | Activity [15] | also measured
1 | CC(=O)c1ccc(Nc2nnnn2Cc2ccccc2)cc1 | > 200 µM | > 200 µM |  |  |  |  |  | 
2 | c1ccc(Cn2nnnc2Nc2ccccc2)cc1 | > 200 µM | > 200 µM |  |  |  |  |  | Activity [3]: Active; Activity [4]: Active; Activity [5]: Active; Activity [6]: Active; Activity [7]: Active; Activity [8]: Active; Activity [9]: Active
3 | Clc1nccc(Nc2nnnn2Cc2ccccc2)n1 | 35.4 µM (≈ 10.2 µg/mL) |  |  |  |  |  |  | Activity [10]: Toxic
4 | O=Cc1ccc(Nc2nnnn2Cc2ccccc2)cc1 | > 200 µM | > 200 µM | Active | Active | Active | Active | Active | 
5 | CCC(C)n1ncn(-c2ccc(N3CCN(c4ccc(OCC5COC(Cn6cncn6)(c6ccc(Cl)cc6Cl)O5)cc4)CC3)cc2)c1=O (stereo not drawn) [ITRACONAZOLE] |  |  |  |  |  |  |  | Activity [16]: Toxic; Activity [17]: Toxic
6 | O=[N+]([O-])c1ccc(Nc2nnnn2Cc2ccccc2)cc1 | > 200 µM | > 200 µM |  |  |  |  |  | 
7 | c1ccc(Nc2nnn(CCC34CC5CC(CC(C5)C3)C4)n2)cc1 | > 200 µM | > 200 µM | Active | Active | Active | Active | Active | 
8 | Nc1nnn(Cc2ccccc2)n1 | > 200 µM | > 200 µM |  |  |  |  |  | 
9 | c1ccc(Nc2nnnn2CCC23CC4CC(CC(C4)C2)C3)cc1 | > 200 µM | > 200 µM |  |  |  |  |  | Activity [3]: Active; Activity [4]: Active; Activity [5]: Active; Activity [6]: Active; Activity [7]: Active; Activity [8]: Active; Activity [18]: Active; Activity [19]: Active; Activity [20]: Active; Activity [21]: Active; Activity [22]: Active; Activity [23]: Active; Activity [24]: Active; Activity [9]: Active; inhibition in vivo at 10 µM [25]: 100%; Activity [26]: Non-Toxic
10 | Nc1nnnn1Cc1ccccc1 | > 200 µM | > 200 µM | Active | Active | Active | Active | Active | 
11 | Clc1cccc(Nc2nnnn2Cc2ccccc2)c1 | > 200 µM | > 200 µM |  |  |  |  |  | 
12 | CCCn1nnnc1Nc1ccnc(Cl)n1 | > 200 µM | > 200 µM |  |  |  |  |  | Activity [3]: Active; Activity [4]: Active; Activity [5]: Active; Activity [6]: Active; Activity [7]: Active; Activity [8]: Active; Activity [9]: Active
13 | Nc1nnnn1-c1ccccc1 [FENAMOLE] | > 200 µM | > 200 µM | Active | Active | Active | Active | Active | 
14 | Nc1nnn(CCC23CC4CC(CC(C4)C2)C3)n1 | > 200 µM | > 200 µM |  |  |  |  |  | Activity [3]: Active; Activity [4]: Active; Activity [5]: Active; Activity [6]: Active; Activity [7]: Active; Activity [8]: Active; Activity [18]: Active; Activity [19]: Active; Activity [20]: Active; Activity [21]: Active; Activity [22]: Active; Activity [23]: Active; Activity [24]: Active; Activity [9]: Active
15 | CN(C)CCCNc1nccc(Nc2nnnn2Cc2ccccc2)n1 | > 200 µM | > 200 µM |  |  |  |  |  | 
16 | CCCn1nnnc1Nc1ccccc1 | > 200 µM | > 200 µM | Active | Active | Active | Active | Active | 
17 | c1ccc(Cn2nnnc2Nc2cccnc2)cc1 | > 200 µM | > 200 µM |  |  |  |  |  | 
18 | CCCn1nnc(N)n1 | > 200 µM | > 200 µM |  |  |  |  |  | 
19 | COc1ccc(Nc2nnnn2Cc2ccccc2)cc1 | > 200 µM | > 200 µM | Active | Active | Active | Active | Active | 
20 | CCCn1nnc(Nc2ccccc2)n1 | > 200 µM | > 200 µM | Active | Active | Active | Active | Active | 
21 | Cc1cc(Cl)ccc1Nc1nnnn1Cc1ccccc1 | 6.4 µM (≈ 1.92 µg/mL) |  |  |  |  |  |  | 
22 | c1ccc(Nc2nn[nH]n2)cc1 | > 200 µM | > 200 µM |  |  |  |  |  | Activity [27]: Non-Toxic
23 | CCCn1nnnc1N | > 200 µM | > 200 µM | Active | Active | Active | Active | Active | Activity [26]: Non-Toxic
24 | COC(=O)c1cccc(Nc2nnnn2Cc2ccccc2)c1 | 35.4 µM (≈ 11 µg/mL) |  |  |  |  |  |  | 
25 | c1ccc(Cn2nnc(Nc3ccccc3)n2)cc1 | > 200 µM | > 200 µM | Active | Active | Active | Active | Active | 
26 | N#Cc1ccc(Nc2nnnn2Cc2ccccc2)cc1 | > 200 µM | > 200 µM |  |  |  |  |  | 
27 | c1ccc(Nc2nnnn2-c2ccccc2)cc1 | 194 µM (≈ 46 µg/mL) |  | Active | Active | Active | Active | Active | 
28 | Nc1nnn[nH]1 | > 200 µM | > 200 µM | Active | Active | Active | Active | Active | Activity [27]: Non-Toxic; Activity [26]: Non-Toxic
29 | Clc1ccc(Nc2nnnn2Cc2ccccc2)cc1 | > 200 µM | > 200 µM |  |  |  |  |  | 
